According to patent US20260132125A1, “PESTICIDALLY ACTIVE FUSED BICYCLIC HETEROAROMATIC COMPOUNDS” (priority 2022, published 2026):

Experiments:
Type in all cases: in vivo
[1] = system: Diabrotica balteata; assay: Example B2: activity against Diabrotica balteata (corn root worm), maize sprouts; conditions: 96 h, L2 larvae, 4 days after infestation, read-out: effect in at least one of the two categories (mortality or growth inhibition)
Procedure, shortened: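 Maize sprouts on agar were sprayed with aqueous test solutions made from 10′000 ppm DMSO stocks, dried, then infested with 6–10 L2 larvae per well. Mortality and growth inhibition were scored against untreated samples 4 days after infestation, at an application rate of 200 ppm.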

[2] = system: Spodoptera littoralis; assay: Example B6: activity against Spodoptera littoralis (Egyptian cotton leaf worm), cotton leaf discs; conditions: foliar, 72 h, 200 ppm, L1 larvae, 3 days after infestation, read-out: control (at least one of mortality, anti-feedant effect, growth inhibition)
Procedure, shortened: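 Five L1 larvae per sprayed, dried cotton leaf disc on agar. Activity is counted when mortality, anti-feedant effect or growth inhibition exceeds the untreated sample at day 3.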

[3] = system: Euschistus heros; assay: Example B3: activity against Euschistus heros (neotropical brown stink bug), soybean leaves; conditions: 120 h, N2 nymphs, 5 days after infestation, read-out: effect in at least one of the two categories (mortality or growth inhibition)
Experimental: Soybean leaves on agar in 24-well microtiter plates were sprayed with aqueous test solutions prepared from 10′000 ppm DMSO stock solutions. After drying the leaves were infested with N2 nymphs. The samples were assessed for mortality and growth inhibition in comparison to untreated samples 5 days after infestation. The following compounds gave an effect of at least 80% in at least one of the two categories (mortality or growth inhibition) at an application rate of 200 ppm: […]

[4] = system: Plutella xylostella; assay: Example B5: activity against Plutella xylostella (diamond back moth), artificial diet, eggs; conditions: 192 h, 8 days after infestation, read-out: effect in at least one of the two categories (mortality or growth inhibition)
Procedure, shortened: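 Artificial diet in 24-well plates was treated with aqueous dilutions of DMSO stocks, dried, then infested with Plutella eggs. Mortality and growth inhibition were scored against untreated samples 8 days after infestation; application rate 200 ppm.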

[5] = system: Chilo suppressalis; assay: Example B1: activity against Chilo suppressalis (striped rice stemborer), artificial diet; conditions: 144 h, 200 ppm, L2 larvae, 6 days after infestation, read-out: control (at least one of mortality, anti-feedant effect, growth inhibition)
Procedure, shortened: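 First, artificial diet was treated with aqueous solutions prepared from 10'000 ppm DMSO stocks; second, after drying, L2 larvae (6-8/well) were added; third, effects were assessed at 6 days against untreated controls, counting control when any of three categories was higher.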

[6] = system: Pseudoplusia includens; assay: Example B9: Pseudoplusia includens (soybean looper), larvicide, feeding/contact, soybean plants; conditions: Chrysodeixis includens, 120 h; 50 ppm; L2 larvae; 5 days after infestation; read-out: effect in at least one of the two categories (mortality or growth inhibition)
Experimental: Soybean plants were treated in a spray chamber, cut off and placed into petri dishes containing wet filter paper. 1d after application leaves were infested with 5 L2 larvae and covered with a fabric filter and plastic lids. 5 days after infestation the samples were assessed for mortality and growth inhibition. The following compounds gave an effect of at least 80% in at least one of the two categories (mortality or growth inhibition) at an application rate of 50 ppm: […]

[7] = system: Myzus persicae; assay: Example B4: activity against Myzus persicae (green peach aphid), intrinsic activity; conditions: 120 h, test rate 12 ppm, 5 days after infestation
Experimental: Test compounds prepared from 10′000 ppm DMSO stock solutions were applied by pipette into 24-well microtiter plates and mixed with sucrose solution. The plates were closed with a stretched Parafilm. A plastic stencil with 24 holes was placed onto the plate and infested pea seedlings were placed directly on the Parafilm. The infested plate was closed with a gel blotting paper and another plastic stencil and then turned upside down. The samples were assessed for mortality 5 days after infestation.

[8] = system: Myzus persicae; assay: Example B7b: Myzus persicae feeding/contact activity, eggplant leaf discs; conditions: foliar, 144 h, mixed ages, 6 days after infestation
Experimental: Eggplant leaf discs were placed onto agar in a 24-well microtiter plate and sprayed with aqueous test solutions prepared from 10′000 ppm DMSO stock solutions. After drying, the leaf discs were infested with an aphid population of mixed ages. The samples were assessed for mortality 6 days after infestation.

CNC(=O)c1cnc(-n2ncnc2[C@H](C)Nc2ncnc3c(C(F)(F)F)cc(Cl)cc23)s1 [Compound P7, 2-[5-[(1S)-1-[[6-chloro-8-(trifluoromethyl)quinazolin-4-yl]amino]ethyl]-1,2,4-triazol-1-yl]-N-methyl-thiazole-5-carboxamide]
≥ 80%: percent effect (mortality or growth inhibition) at 200 ppm [1] | percent control (mortality, anti-feedant effect or growth inhibition) at 200 ppm [2] | percent effect (mortality or growth inhibition) at 200 ppm [3] | percent effect (mortality or growth inhibition) at 200 ppm [4] | percent control (mortality, anti-feedant effect or growth inhibition) at 200 ppm [5]

CNC(=O)c1cc(-n2ncnc2[C@H](C)N(C)c2ncnc3c(Cl)cc(C(F)(F)F)cc23)ncn1 [Compound P15, 6-[5-[(1S)-1-[[8-chloro-6-(trifluoromethyl)quinazolin-4-yl]-methyl-amino]ethyl]-1,2,4-triazol-1-yl]-N-methyl-pyrimidine-4-carboxamide]
≥ 80%: percent effect (mortality or growth inhibition) at 200 ppm [1] | percent effect (mortality or growth inhibition) at 50 ppm [6] | percent control (mortality, anti-feedant effect or growth inhibition) at 200 ppm [2] | percent effect (mortality or growth inhibition) at 200 ppm [3] | mortality at 12 ppm [7] | percent effect (mortality or growth inhibition) at 200 ppm [4] | percent control (mortality, anti-feedant effect or growth inhibition) at 200 ppm [5]

CNC(=O)c1cc(-n2ncnc2[C@H](C)Nc2ncnc3c(Cl)cc(C(F)(F)F)cc23)ncn1 [Compound P16, 6-[5-[(1S)-1-[[8-chloro-6-(trifluoromethyl)quinazolin-4-yl]amino]ethyl]-1,2,4-triazol-1-yl]-N-methyl-pyrimidine-4-carboxamide]
≥ 80%: percent effect (mortality or growth inhibition) at 200 ppm [1] | percent effect (mortality or growth inhibition) at 50 ppm [6] | percent control (mortality, anti-feedant effect or growth inhibition) at 200 ppm [2] | mortality at 12 ppm [7] | percent effect (mortality or growth inhibition) at 200 ppm [4] | percent control (mortality, anti-feedant effect or growth inhibition) at 200 ppm [5]

CNC(=O)c1cc(-n2ncnc2[C@H](C)N(C)c2ncnc3c(I)cc(Cl)cc23)ncn1 [Compound P33, 6-[5-[(1S)-1-[(6-chloro-8-iodo-quinazolin-4-yl)-methyl-amino]ethyl]-1,2,4-triazol-1-yl]-N-methyl-pyrimidine-4-carboxamide]
≥ 80%: percent effect (mortality or growth inhibition) at 200 ppm [1] | percent effect (mortality or growth inhibition) at 50 ppm [6] | percent control (mortality, anti-feedant effect or growth inhibition) at 200 ppm [2] | mortality at 12 ppm [7] | percent effect (mortality or growth inhibition) at 200 ppm [4] | percent control (mortality, anti-feedant effect or growth inhibition) at 200 ppm [5]

C[C@H](Nc1ncnc2c(Cl)cc(C(F)(F)F)cc12)c1ncnn1-c1ncc(C(N)=O)s1 [Compound P35, 2-[5-[(1S)-1-[[8-chloro-6-(trifluoromethyl)quinazolin-4-yl]amino]ethyl]-1,2,4-triazol-1-yl]thiazole-5-carboxamide]
≥ 80%: percent effect (mortality or growth inhibition) at 200 ppm [1] | percent control (mortality, anti-feedant effect or growth inhibition) at 200 ppm [2] | percent effect (mortality or growth inhibition) at 200 ppm [3] | mortality at 12 ppm [7] | percent effect (mortality or growth inhibition) at 200 ppm [4] | percent control (mortality, anti-feedant effect or growth inhibition) at 200 ppm [5]

C[C@H](Nc1ncnc2c(Br)cc(Br)cc12)c1ncnn1-c1cc(C#N)ncn1 [Compound P41, 6-[5-[(1S)-1-[(6,8-dibromoquinazolin-4-yl)amino]ethyl]-1,2,4-triazol-1-yl]pyrimidine-4-carbonitrile]
≥ 80%: percent effect (mortality or growth inhibition) at 200 ppm [1] | percent control (mortality, anti-feedant effect or growth inhibition) at 200 ppm [2] | percent effect (mortality or growth inhibition) at 200 ppm [4] | mortality at 200 ppm [8] | percent control (mortality, anti-feedant effect or growth inhibition) at 200 ppm [5]

C[C@@H](c1ncnn1-c1cc(C(N)=O)ncn1)N(C)c1ncnc2c(I)cc(Cl)cc12 [Compound P47, 6-[5-[(1S)-1-[(6-chloro-8-iodo-quinazolin-4-yl)-methyl-amino]ethyl]-1,2,4-triazol-1-yl]pyrimidine-4-carboxamide]
≥ 80%: percent effect (mortality or growth inhibition) at 200 ppm [1] | percent effect (mortality or growth inhibition) at 50 ppm [6] | percent control (mortality, anti-feedant effect or growth inhibition) at 200 ppm [2] | percent effect (mortality or growth inhibition) at 200 ppm [3] | mortality at 12 ppm [7] | percent effect (mortality or growth inhibition) at 200 ppm [4] | percent control (mortality, anti-feedant effect or growth inhibition) at 200 ppm [5]

C[C@@H](c1ncnn1-c1cc(C(N)=O)ncn1)N(C)c1ncnc2c(Br)cc(Br)cc12 [Compound P48, 6-[5-[(1S)-1-[(6,8-dibromoquinazolin-4-yl)-methyl-amino]ethyl]-1,2,4-triazol-1-yl]pyrimidine-4-carboxamide]
≥ 80%: percent effect (mortality or growth inhibition) at 200 ppm [1] | percent control (mortality, anti-feedant effect or growth inhibition) at 200 ppm [2] | percent effect (mortality or growth inhibition) at 200 ppm [3] | mortality at 12 ppm [7] | percent effect (mortality or growth inhibition) at 200 ppm [4] | percent control (mortality, anti-feedant effect or growth inhibition) at 200 ppm [5]

C[C@@H](c1ncnn1-c1cc(C(N)=O)ncn1)N(C)c1ncnc2c(Cl)cc(C(F)(F)F)cc12 [Compound P51, 6-[5-[(1S)-1-[[8-chloro-6-(trifluoromethyl)quinazolin-4-yl]-methyl-amino]ethyl]-1,2,4-triazol-1-yl]pyrimidine-4-carboxamide]
≥ 80%: percent effect (mortality or growth inhibition) at 200 ppm [1] | percent control (mortality, anti-feedant effect or growth inhibition) at 200 ppm [2] | percent effect (mortality or growth inhibition) at 200 ppm [3] | mortality at 12 ppm [7] | percent effect (mortality or growth inhibition) at 200 ppm [4] | percent control (mortality, anti-feedant effect or growth inhibition) at 200 ppm [5]

CNC(=O)c1cc(-n2ncnc2[C@H](C)Nc2ncnc3c(S(=O)(=O)C(F)(F)F)cc(Cl)cc23)ncn1 [Compound P60, 6-[5-[(1S)-1-[[6-chloro-8-(trifluoromethylsulfonyl)quinazolin-4-yl]amino]ethyl]-1,2,4-triazol-1-yl]-N-methyl-pyrimidine-4-carboxamide]
≥ 80%: percent effect (mortality or growth inhibition) at 200 ppm [1] | percent effect (mortality or growth inhibition) at 50 ppm [6] | percent control (mortality, anti-feedant effect or growth inhibition) at 200 ppm [2] | percent effect (mortality or growth inhibition) at 200 ppm [3] | mortality at 12 ppm [7] | percent effect (mortality or growth inhibition) at 200 ppm [4] | percent control (mortality, anti-feedant effect or growth inhibition) at 200 ppm [5]

C[C@H](Nc1ncnc2c(C(F)(F)F)cc(Cl)cc12)c1ncnn1-c1cc(C(=O)N(C)CC#N)ncn1 [Compound P62, 6-[5-[(1S)-1-[[6-chloro-8-(trifluoromethyl)quinazolin-4-yl]amino]ethyl]-1,2,4-triazol-1-yl]-N-(cyanomethyl)-N-methyl-pyrimidine-4-carboxamide]
≥ 80%: percent effect (mortality or growth inhibition) at 200 ppm [1] | percent effect (mortality or growth inhibition) at 50 ppm [6] | percent control (mortality, anti-feedant effect or growth inhibition) at 200 ppm [2] | mortality at 12 ppm [7] | percent effect (mortality or growth inhibition) at 200 ppm [4] | percent control (mortality, anti-feedant effect or growth inhibition) at 200 ppm [5]

C[C@H](Nc1ncnc2c(C(F)(F)F)cc(Cl)cc12)c1ncnn1-c1ncc(C(N)=O)cn1 [Compound P68, 2-[5-[(1S)-1-[[6-chloro-8-(trifluoromethyl)quinazolin-4-yl]amino]ethyl]-1,2,4-triazol-1-yl]pyrimidine-5-carboxamide]
≥ 80%: percent effect (mortality or growth inhibition) at 200 ppm [3]

C[C@H](Nc1ncnc2c(Br)cc(Br)cc12)c1ncnn1-c1cnc(C(N)=O)cn1 [Compound P74, 5-[5-[(1S)-1-[(6,8-dibromoquinazolin-4-yl)amino]ethyl]-1,2,4-triazol-1-yl]pyrazine-2-carboxamide]
≥ 80%: percent control (mortality, anti-feedant effect or growth inhibition) at 200 ppm [2] | percent effect (mortality or growth inhibition) at 200 ppm [3] | percent effect (mortality or growth inhibition) at 200 ppm [4]

C[C@H](Nc1ncnc2c(I)cc(Cl)cc12)c1ncnn1-c1cnc(C(N)=O)cn1 [Compound P75, 5-[5-[(1S)-1-[(6-chloro-8-iodo-quinazolin-4-yl)amino]ethyl]-1,2,4-triazol-1-yl]pyrazine-2-carboxamide]
≥ 80%: percent effect (mortality or growth inhibition) at 200 ppm [1] | percent control (mortality, anti-feedant effect or growth inhibition) at 200 ppm [2] | percent effect (mortality or growth inhibition) at 200 ppm [3] | mortality at 12 ppm [7] | percent effect (mortality or growth inhibition) at 200 ppm [4] | percent control (mortality, anti-feedant effect or growth inhibition) at 200 ppm [5]
